Measured values reported in US20250129021A1, “SMALL MOLECULE PROTEIN SYNTHESIS MODULATORS” (Interdict Bio, Inc., priority 2023, published 2025).
Where two headings read alike, the source gives them in different places.

Tests used:
[1] = test system: MCF7; test: Cell viability (CellTiter-Fluor), MCF7; type: cell-based; conditions: Homo sapiens, 24-72 hrs
Procedure: (§1) Count and dispense 2,000-10,000 cells per well (100 μL volume) in black 96-well tissue culture microplate and let cells adhere overnight. Add compound dissolved in 100% DMSO to each well as needed and incubate cells in standard culture conditions for 24-72 hrs. Final DMSO concentration in each well should be 0.1-0.5%. At the desired time point, gently aspirate compound containing media and replace with PBS to wash. Repeat wash step for 2 total washes. Remove PBS and add 100 μL CellTiter-Fluor reagent (Promega) reagent to each well. Seal plate and incubate 1 hr at room temperature with orbital shaking. Analyze fluorescence using plate reader to quantify viable cells compared with vehicle (DMSO) control.

[2] = test system: HEK 293T; test: Cell viability (CellTiter-Fluor), HEK 293T; type: cell-based; conditions: Homo sapiens, 24-72 hrs
Procedure: as §1

[3] = test system: MCL-1; test: In vitro transcription-translation (IVTT) assay, MCL-1 reporter; type: biochemical; conditions: HeLa S3 lysate, sfGFP/mCherry ratio
In short: (§2)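 Reporter: mCherry, P2A, then 3×FLAG-target peptide-sfGFP fusion, IRES-initiated; HeLa S3 lysate IVTT; cpd dilutions 30 μM−0.1 μM half-log in 100% DMSO (dilution-plate conc); DNA added last; 2 h, 30° C; PBS quench.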

[4] = test system: NCI-H1915; test: Cell viability (CellTiter-Fluor), NCI-H1915; type: cell-based; conditions: 24-72 hrs
Procedure: as §1

[5] = test system: CCND1; test: In vitro transcription-translation (IVTT) assay, CCND1 reporter; type: biochemical; conditions: HeLa S3 lysate, sfGFP/mCherry ratio
In short: as §2

[6] = test system: HPAF-II; test: Cell viability (CellTiter-Fluor), HPAF-II; type: cell-based; conditions: Homo sapiens, 24-72 hrs
Procedure: as §1

[7] = test system: LS411N; test: Cell viability (CellTiter-Fluor), LS411N; type: cell-based; conditions: Homo sapiens, LS-411N, 24-72 hrs
Procedure: as §1

[8] = test system: KLE; test: Cell viability (CellTiter-Fluor), KLE; type: cell-based; conditions: Homo sapiens, 24-72 hrs
Procedure: as §1

[9] = test system: MYC; test: In vitro transcription-translation (IVTT) assay, MYC reporter; type: biochemical; conditions: HeLa S3 lysate, 2 hrs at 30° C.
In short: as §2

[10] = test system: STING; test: In vitro transcription-translation (IVTT) assay, STING reporter; type: biochemical; conditions: HeLa S3 lysate, sfGFP/mCherry ratio
Procedure: (§3) In vitro transcription-translation assay setup: Each assay includes a master mix containing lysate and shared components, a 96-well plate containing compound titrations for testing, a 96-well DNA plate with reporter constructs to be tested, 96-well skirted PCR plates, and 96-well flat-bottom, black, fluorescent assay plates. Reaction materials setup: (A) Master mix—15 mL conical tube (3 mL of HeLa S3 Lysate described above; 0.6 mL of ThermoFisher Accessory Proteins (#88882); 1.2 ml of ThermoFisher Reaction Mix (#88882); 0.54 mL of nuclease-free Water); (B) 96-Well Master Mix+Compound Plate (Half-log dilutions (30 μM−0.1 μM) of 4 compounds of interest are prepared in 100% DMSO); 96-Well DNA Plate (Five DNA constructs are plated into single columns within the plate. Row 1 of the column contains nuclease free H2O, all other wells contain 110 ng/μL plasmid DNA). Reactions are started by mixing 155 μL of master mix and 3.5 μL of compound serial dilutions, then 9.1 μL of master mix+compound mixture is aliquoted across 5 96-well plates. Reactions begin with final addition of 2 μL of DNA for a 11.1 μL reaction volume in each well. The entire plate is sealed, and incubated for 2 hrs at 30° C. After 2 hrs, quench the assay using 45 μL of PBS, and transfer 50 μL to a flat-bottom black microplate Quantify the sfGFP and mCherry signals from each well on each plate, taking 3 reads of each plate, and perform data analysis below.
(§4) In vitro transcription-translation assay data analysis: Each plate is read three times in channels for both sfGFP and mCherry signals. The average signal across these 3 reads is then calculated for further analysis. Control wells containing no DNA reporter are subtracted from reporter wells in the same column to remove auto-fluorescence of the lysate. Then, the ratio of sfGFP/mCherry is calculated per well, and these ratios are averaged across the triplicate experiments on the same plate. Finally, the ratio of each titration concentration is normalized to the no drug control to create the normalized stalling metric. The error on this measurement is determined by propagating error through the averaging and normalization steps. Values are plotted and fit for IC50 determination for each test sequence and titration of compound.

[11] = test system: JAK1; test: In vitro transcription-translation (IVTT) assay, JAK1 reporter; type: biochemical; conditions: HeLa S3 lysate, sfGFP/mCherry ratio
Procedure: as §3, §4

[12] = test system: CCNTB1; test: In vitro transcription-translation (IVTT) assay, CCNTB1 reporter; type: biochemical; conditions: HeLa S3 lysate, sfGFP/mCherry ratio
In short: (§5)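 Cell-free HeLa S3 lysate reactions expressing sfGFP/mCherry reporter constructs ran 2 h at 30 °C with compound from half-log DMSO series (30 μM–0.1 μM as prepared), then were quenched with PBS. No-DNA background was subtracted, and the sfGFP/mCherry ratio was normalized to the no-drug control and fit for IC50.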

[13] = test system: cGAS; test: In vitro transcription-translation (IVTT) assay, cGAS reporter; type: biochemical; conditions: HeLa S3 lysate, sfGFP/mCherry ratio
Procedure: as §3, §4

[14] = test system: NFKB1; test: In vitro transcription-translation (IVTT) assay, NFKB1 reporter; type: biochemical; conditions: HeLa S3 lysate, sfGFP/mCherry ratio
In short: as §5

[15] = IVTT assay, read-out: MCL1 IC50
[16] = IVTT assay, MYC reporter, normalized sfGFP/mCherry ratio, half-log dilutions 30 μM-0.1 μM

IC50 [1] [µM] | IC50 ([3]; 2 hrs at 30° C.) [µM] | IC50 [4] [µM] | IC50 ([5]; 2 hrs at 30° C.) [µM] | IC50 ([9]; sfGFP/mCherry ratio) [µM] | IC50 [3, 15] [µM] | IC50 ([5]; IVTT assay) [µM] | IC50 [10] [µM] | IC50 [11] [µM] | IC50 [12] [µM] | IC50 [13] [µM] | IC50 [14] [µM] | Structure (SMILES) | IC50 [2] [µM] | IC50 [6] [µM] | IC50 [7] [µM] | IC50 [8] [µM] | IC50 [9, 16] [µM]
1 to 4 | < 10 | 1 to 4 | < 10 | < 10 | – | – | – | – | – | – | – | COc1ccc(C[C@H]2NC[C@H](O)[C@H]2OC(=O)NCc2cc[nH]c(=O)c2)cc1 [V188053, (2R,3S,4S)-4-hydroxy-2-[(4-methoxyphenyl)methyl]pyrrolidin-3-yl N-[(2-oxo-1H-pyridin-4-yl)methyl]carbamate] | 1 to 4 | 1 to 4 | 1 to 4 | 1 to 4 | –
– | – | – | – | – | < 10 | < 10 | < 10 | < 10 | < 10 | < 10 | < 10 | O=C(NCC[C@@H]1CCCN1)O[C@@H]1[C@@H](O)CN[C@@H]1Cc1ccc(-c2cnco2)cc1 [V192047, (2R,3S,4S)-4-hydroxy-2-{[4-(1,3-oxazol-5-yl)phenyl]methyl}pyrrolidin-3-yl N-{2-[(2S)-pyrrolidin-2-yl]ethyl}carbamate] | – | – | – | – | < 10
– | – | – | – | – | < 10 | < 10 | < 10 | < 10 | < 10 | < 10 | < 10 | O=C(NCCC1CCNCC1)O[C@@H]1[C@@H](O)CN[C@@H]1Cc1ccc(-c2cnco2)cc1 [V192049, (2R,3S,4S)-4-hydroxy-2-{[4-(1,3-oxazol-5-yl)phenyl]methyl}pyrrolidin-3-yl N-[2-(piperidin-4-yl)ethyl]carbamate] | – | – | – | – | < 10
– | – | – | – | – | < 10 | < 10 | < 10 | < 10 | < 10 | < 10 | < 10 | O=C(NCc1cccc(C2CNC2)c1)O[C@@H]1[C@@H](O)CN[C@@H]1Cc1ccc(-c2cnco2)cc1 [V192154, (2R,3S,4S)-4-hydroxy-2-{[4-(1,3-oxazol-5-yl)phenyl]methyl}pyrrolidin-3-yl N-{[3-(azetidin-3-yl)phenyl]methyl}carbamate] | – | – | – | – | < 10
– | – | – | – | – | < 10 | < 10 | < 10 | < 10 | < 10 | < 10 | < 10 | O=C(NCc1ccnc(N2CCC2)c1)O[C@@H]1[C@@H](O)CN[C@@H]1Cc1ccc(-c2cnco2)cc1 [V192160, (2R,3S,4S)-4-hydroxy-2-(4-(oxazol-5-yl)benzyl)pyrrolidin-3-yl ((2-(azetidin-1-yl)pyridin-4-yl)methyl)carbamate] | – | – | – | – | < 10
– | – | – | – | – | < 10 | < 10 | < 10 | < 10 | < 10 | < 10 | < 10 | O=C(NCCOC(F)(F)F)O[C@@H]1[C@@H](O)CN[C@@H]1Cc1ccc(-c2cnco2)cc1 [V192265, (2R,3S,4S)-4-hydroxy-2-{[4-(1,3-oxazol-5-yl)phenyl]methyl}pyrrolidin-3-yl N-[2-(trifluoromethoxy)ethyl]carbamate] | – | – | – | – | < 10

Structure (SMILES) | IC50 [1] [µM] | IC50 ([3]; 2 hrs at 30° C.) [µM] | IC50 [4] [µM] | IC50 ([5]; 2 hrs at 30° C.) [µM] | IC50 ([9]; sfGFP/mCherry ratio) [µM] | IC50 [3, 15] [µM] | IC50 ([5]; IVTT assay) [µM] | IC50 [10] [µM] | IC50 [11] [µM] | IC50 [12] [µM] | IC50 [13] [µM] | IC50 [14] [µM] | IC50 [2] [µM] | IC50 [6] [µM] | IC50 [7] [µM] | IC50 [8] [µM] | IC50 [9, 16] [µM]
O=C(NCc1cccc(F)c1)O[C@@H]1[C@@H](O)CN[C@@H]1Cc1ccc(-c2cnc(C(F)(F)F)s2)cc1 [V192114, (2R,3S,4S)-4-hydroxy-2-({4-[2-(trifluoromethyl)-1,3-thiazol-5-yl]phenyl}methyl)pyrrolidin-3-yl N-[(3-fluorophenyl)methyl]carbamate] | – | – | – | – | – | > 30 | > 30 | > 30 | 10 to 20 | > 30 | < 10 | < 10 | – | – | – | – | > 30
